This data set deals with salmonella typimurium TA100. Kind of data set: Microorganism reverse mutation test, strain TA100. The note with it: TA100, positive control, 1 μg/plate. The method, then:
The principle of this test is to make use of histidine-requiring strains that are not alive without histidine. This test is performed for detecting histidine recovery, which is original strain property, caused by mutagen in a mutant test.
To carry out the microorganism reverse mutation test, the test was conducted on test standard strains, salmonella typimurium TA98, TA100, TA1535 and TA1537 as pre-culture. […] The salmonella typimurium TA100 is a test strain upon the reversion of guanine and cytosine in a gene, and the salmonella typimurium TA102 is a test strain upon the reversion of adenine and thymine.
As a negative control group, distilled water was used.
The respective test materials, positive control group chemicals, distilled water were treated on a plate, and thereafter the number of revertant strains was measured.

“And” between values parts separate entries of the source, which are not always exact repeats. Equal values may be shown once.

On to `[N-]=[N+]=[N-]` [sodium azide], for which the “Average number of revertant strains” value was 1,279 and 1,559; the “Number of revertant strains” value was 1,136 and 1,421 and 1,662 and 1,456.

Values taken from patent US9446128B2 (priority 2008, dated 2016).
